In patent US20220193240A1, “TRIGGERABLE HYDROGEL COMPOSITIONS AND RELATED METHODS” (Massachusetts Institute of Technology, priority 2016, published 2022):

What was measured:
[1] = In vivo pharmacokinetics of lumefantrine with model fit; design: species or system Yorkshire pig
Experimental: In vivo studies. All animal experiments were performed in accordance with protocols approved by the Committee on Animal Care at MIT. A large animal model, 45-55 kg Yorkshire pigs, was chosen as its gastric anatomy similar to humans and is widely used in evaluating devices in the GI space. Pigs were sedated with Telazol (tiletamine/zolazepam) 5 mg kg−1, xylazine 2 mg kg−1, and atropine 0.05 mg kg−1, and/or isoflurane (1˜3% inhaled), and an endoscopic overtube (US Endoscopy) was placed in the esophagus under endoscopic visual guidance during esophageal intubation. To evaluate the TTH for its ability to be triggered to dissolve into solution with biocompatible agents, the retrievable TTH strips and methyl blue-labeled large TTH sheets were administered via the overtube into the stomach. PBS (0.5 L) containing EDTA (40 mM), GSH (20 mM), and NaHCO3 (60 mM) was administered via the overtube after the gastric placement of the TTH samples. Intra-gastric endoscopy videography was used for image capture of the dissolution of the TTH sheets. The TTH strips were retrieved endoscopically after 1 h in the gastric cavity. Pigs that were not administered EDTA/GSH and therefore the strips and sheets were only exposed to gastric fluid were used as control experiments. To assess TTHs for the ability to achieve gastric retention, radiopaque barium sulfate-labeled capsule-like TTHs were administered via the overtube into the gastric cavity (one TTH device per pig). Radiographs were performed every 48-72 h to monitor the integrity and transit of the devices as well as any radiographic evidence of bowel obstruction or perforation. […] During the evaluation of the TTH systems for gastric residence and drug delivery the animals were monitored twice daily for any signs of abnormal feeding and stooling patterns. Additionally the animals were monitored clinically for any evidence of gastrointestinal obstruction as well as radiographically every 48-72 hours for evidence of obstruction and/or perforation. […]

[2] = pH 7.4
Experimental: Permeability measurement. The measurement of permeability of TTHs was carried out on a Franz diffusion cell using a TTH membrane (thickness, 3 mm). […] At each time point, 0.4 mL was sampled from the acceptor compartment and 0.4 mL fresh PBS was supplemented through the sampling port of the cell.

Row | clearance from blood ([1]; after a single administration) | absorption rate constant ([1]; first order model fit) [day⁻¹] | elimination rate constant ([1]; free drug, model fit, estimated) [day⁻¹] | permeability through the TTH [2] [mL h·cm−2] | SMILES
1 | rapidly cleared from blood | 1.17 | 1.17 |  | CCCCN(CCCC)CC(O)c1cc(Cl)cc2c1-c1ccc(Cl)cc1/C2=C/c1ccc(Cl)cc1 (stereo not shown) [free lumefantrine, lumefantrine]
2 |  |  |  | 0.082 | C[S+](C)[O-] [dimethyl sulfoxide]
